Reference: PubChem BioAssay AID256 (DTP/NCI, 2004)
“And” between values parts separate entries of the source, which are not always exact repeats. Equal values may be shown once. Inconclusive results and toxic doses are left out. How the source made its calls: active means survival T/C of 150% or more; inactive means T/C below 125% in these data.

Test system: CD2F1 mice, L1210 leukemia ip, survival T/C
Assay: NCI In Vivo Anticancer Drug Screen. Data for tumor model L1210 Leukemia (intraperitoneal) in CD2F1 (CDF1) mice
Conditions: endpoint: mean survival time, higher = longer survival
Method in brief: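 Transplantable tumor in mice; compound-treated vs vehicle-treated groups. Read-out = treated/control ratio of the measured endpoint.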

[1] = dose: 12.5 mg/kg/injection, schedule: Q01DX009 (ip), vehicle: saline with Tween-80
[2] = dose: 25.0 mg/kg/injection, schedule: Q01DX009 (ip), vehicle: saline with Tween-80
[3] = dose: 50.0 mg/kg/injection, schedule: Q01DX009 (ip), vehicle: saline with Tween-80
[4] = dose: 100.0 mg/kg/injection, schedule: Q01DX009 (ip), vehicle: saline with Tween-80
[5] = dose: 200.0 mg/kg/injection, schedule: Q01DX009 (ip), vehicle: saline with Tween-80
[6] = dose: 25.0 mg/kg/injection, schedule: Q04DX003 (ip), vehicle: saline with Tween-80
[7] = dose: 100.0 mg/kg/injection, schedule: Q04DX003 (ip), vehicle: saline with Tween-80
[8] = dose: 200.0 mg/kg/injection, schedule: Q04DX003 (ip), vehicle: saline with Tween-80
[9] = dose: 400.0 mg/kg/injection, schedule: Q01DX009 (ip), vehicle: saline with Tween-80

Measured: T/C

CCCCN(N=O)C(=O)Nc1ccc(C2CC(=O)N(C)C2=O)cc1 (stereo not drawn)
inactive: dose: 12.5 mg/kg/injection, schedule: Q01DX001 (ip), vehicle: distilled water + Tween-80 103 % of control | dose: 25.0 mg/kg/injection, schedule: Q01DX001 (ip), vehicle: distilled water + Tween-80 99 % of control | dose: 50.0 mg/kg/injection, schedule: Q01DX001 (ip), vehicle: distilled water + Tween-80 112 % of control | dose: 100.0 mg/kg/injection, schedule: Q01DX001 (ip), vehicle: distilled water + Tween-80 112 % of control | dose: 200.0 mg/kg/injection, schedule: Q01DX001 (ip), vehicle: distilled water + Tween-80 120 % of control

O=C(/C=C\C=C\c1ccc2c(c1)OCO2)N1CCCCC1
inactive: [1] 111 % of control | [2] 107 % of control | [3] 104 % of control

OCc1ccc(Cl)cc1Cl
inactive: [4] 93 % of control | [5] 92 % of control

CC(=O)CCN1Cc2cc3c(cc2C(O)C1)OCO3 (stereo not drawn)
inactive: dose: 75.0 mg/kg/injection, schedule: Q01DX001 (ip), vehicle: saline 104 % of control | dose: 150.0 mg/kg/injection, schedule: Q01DX001 (ip), vehicle: saline 97 % of control | dose: 300.0 mg/kg/injection, schedule: Q01DX001 (ip), vehicle: saline 95 % of control

Nc1ncnc2nc(-c3ccc(OCc4ccccc4)cc3)[nH]c12
inactive: dose: 100.0 mg/kg/injection, schedule: Q01DX001 (ip), vehicle: Klucel (hydroxypropylcellulose) (HPC) 97 % of control | dose: 200.0 mg/kg/injection, schedule: Q01DX001 (ip), vehicle: Klucel (hydroxypropylcellulose) (HPC) 89 % of control | dose: 400.0 mg/kg/injection, schedule: Q01DX001 (ip), vehicle: Klucel (hydroxypropylcellulose) (HPC) 95 % of control

CC(Br)C(Br)CO (stereo not drawn)
inactive: dose: 100.0 mg/kg/injection, schedule: Q04DX003 (ip), vehicle: saline 104 % of control | dose: 200.0 mg/kg/injection, schedule: Q04DX003 (ip), vehicle: saline 96 % of control | dose: 400.0 mg/kg/injection, schedule: Q04DX003 (ip), vehicle: saline 106 % of control

COc1ccc(OC)c(CCN)c1
inactive: [1] 101 % of control | [2] 102 % of control | [6] 100 % of control | [3] 93 % of control | dose: 50.0 mg/kg/injection, schedule: Q04DX003 (ip), vehicle: saline with Tween-80 97 % of control | [7] 108 % of control

CCNC(=O)OCCc1c2ccccc2nc2ccccc12
inactive: dose: 100.0 mg/kg/injection, schedule: Q04DX002 (ip), vehicle: other 105 % of control and 102 % of control | dose: 200.0 mg/kg/injection, schedule: Q04DX002 (ip), vehicle: other 97 % of control and 90 % of control | dose: 400.0 mg/kg/injection, schedule: Q04DX002 (ip), vehicle: other 94 % of control and 97 % of control

C[n+]1ccccc1C#N
inactive: dose: 25.0 mg/kg/injection, schedule: Q01DX009 (ip), vehicle: saline sonified 102 % of control | dose: 50.0 mg/kg/injection, schedule: Q01DX009 (ip), vehicle: saline sonified 102 % of control | [7] 95 % of control

O=S(=O)(O)c1cccnc1
inactive: dose: 100.0 mg/kg/injection, schedule: Q04DX002 (ip), vehicle: saline 94 % of control | dose: 200.0 mg/kg/injection, schedule: Q04DX002 (ip), vehicle: saline 94 % of control | dose: 400.0 mg/kg/injection, schedule: Q04DX002 (ip), vehicle: saline 97 % of control

O=S1(=O)C[CH-]C1.[C-]#[O+].[C-]#[O+].[C-]#[O+].[W].[c-]1[c-][c-][cH-][c-]1
inactive: dose: 50.0 mg/kg/injection, schedule: Q04DX002 (ip), vehicle: saline with Tween-80 93 % of control | dose: 100.0 mg/kg/injection, schedule: Q04DX002 (ip), vehicle: saline with Tween-80 101 % of control | dose: 200.0 mg/kg/injection, schedule: Q04DX002 (ip), vehicle: saline with Tween-80 89 % of control

CN/N=C1\CCC2(C)C(CCC3C4CCC(O)C4(C)CCC32)C1 (stereo not drawn)
inactive: dose: 12.5 mg/kg/injection, schedule: Q01DX009 (ip), vehicle: Klucel (hydroxypropylcellulose) (HPC) 88 % of control | dose: 25.0 mg/kg/injection, schedule: Q01DX009 (ip), vehicle: Klucel (hydroxypropylcellulose) (HPC) 89 % of control | dose: 50.0 mg/kg/injection, schedule: Q01DX009 (ip), vehicle: Klucel (hydroxypropylcellulose) (HPC) 91 % of control and 105 % of control

Cc1c(O)c(N=NC(N)=S)c2ccccc2c1O
inactive: [7] 100 % of control | [8] 102 % of control | dose: 400.0 mg/kg/injection, schedule: Q04DX003 (ip), vehicle: saline with Tween-80 100 % of control

O=C(CNC(=O)Nc1cccc([N+](=O)[O-])c1)N/N=C/c1ccccc1O
inactive: [3] 93 % of control | [4] 86 % of control | [5] 89 % of control

Oc1c(O)c(Br)c(Br)c(Br)c1Br
inactive: dose: 100.0 mg/kg/injection, schedule: Q01DX001 (ip), vehicle: other 98 % of control | dose: 200.0 mg/kg/injection, schedule: Q01DX001 (ip), vehicle: other 103 % of control

CC(=O)Nc1ccc(CC#N)cc1
inactive: dose: 5.0 mg/kg/injection, schedule: Q04DX003 (ip), vehicle: saline sonified 103 % of control | dose: 10.0 mg/kg/injection, schedule: Q04DX003 (ip), vehicle: saline sonified 114 % of control | dose: 20.0 mg/kg/injection, schedule: Q04DX003 (ip), vehicle: saline sonified 94 % of control

C=CCNC(=O)C(O)C(O)C(=O)NCC=C (stereo not drawn)
inactive: dose: 100.0 mg/kg/injection, schedule: Q01DX009 (ip), vehicle: acetone 101 % of control | dose: 100.0 mg/kg/injection, schedule: Q04DX003 (ip), vehicle: acetone 98 % of control | dose: 200.0 mg/kg/injection, schedule: Q01DX009 (ip), vehicle: acetone 96 % of control | dose: 200.0 mg/kg/injection, schedule: Q04DX003 (ip), vehicle: acetone 100 % of control | dose: 400.0 mg/kg/injection, schedule: Q01DX009 (ip), vehicle: acetone 98 % of control | dose: 400.0 mg/kg/injection, schedule: Q04DX003 (ip), vehicle: acetone 112 % of control

OCCOc1cccc(OCCO)c1
inactive: [4] 96 % of control | [5] 96 % of control | [9] 115 % of control

CCCCCCOC(CN(C)C)C(Cl)(Cl)Cl (stereo not drawn)
inactive: [1] 96 % of control and 103 % of control | [2] 96 % of control and 100 % of control | [3] 97 % of control and 100 % of control | [4] 96 % of control and 101 % of control | [5] 102 % of control and 105 % of control | [9] 105 % of control

CC(Br)C1(c2cccc([N+](=O)[O-])c2)OCCO1 (stereo not drawn)
inactive: dose: 12.0 mg/kg/injection, schedule: Q01DX009 (ip), vehicle: saline 96 % of control | dose: 25.0 mg/kg/injection, schedule: Q01DX009 (ip), vehicle: saline 112 % of control | dose: 50.0 mg/kg/injection, schedule: Q01DX009 (ip), vehicle: saline 106 % of control

CCCCCCCCCCCCCC[n+]1ccc(C(N)=O)cc1
inactive: dose: 12.5 mg/kg/injection, schedule: Q04DX003 (ip), vehicle: saline with Tween-80 107 % of control | [6] 107 % of control

CCCCc1c(C)[nH]c(=S)[nH]c1=O
inactive: [7] 91 % of control | [8] 96 % of control

N#Cc1nnn(C2OC(CO)C(O)C2O)c1C#N (stereo not drawn)
inactive: dose: 12.5 mg/kg/injection, schedule: Q01DX005 (ip), vehicle: other 100 % of control | dose: 25.0 mg/kg/injection, schedule: Q01DX005 (ip), vehicle: other 97 % of control | dose: 50.0 mg/kg/injection, schedule: Q01DX005 (ip), vehicle: other 96 % of control | dose: 100.0 mg/kg/injection, schedule: Q01DX005 (ip), vehicle: other 94 % of control | dose: 200.0 mg/kg/injection, schedule: Q01DX005 (ip), vehicle: other 102 % of control
